In article doi:10.1101/2025.03.25.645215v1 (biorxiv, 2025):

T1: B^0AT2/SLC6A15 (eGFP-hSLC6A15) (Homo sapiens, UniProt Q9H2J7)
T1 sequence (Q9H2J7 1-730): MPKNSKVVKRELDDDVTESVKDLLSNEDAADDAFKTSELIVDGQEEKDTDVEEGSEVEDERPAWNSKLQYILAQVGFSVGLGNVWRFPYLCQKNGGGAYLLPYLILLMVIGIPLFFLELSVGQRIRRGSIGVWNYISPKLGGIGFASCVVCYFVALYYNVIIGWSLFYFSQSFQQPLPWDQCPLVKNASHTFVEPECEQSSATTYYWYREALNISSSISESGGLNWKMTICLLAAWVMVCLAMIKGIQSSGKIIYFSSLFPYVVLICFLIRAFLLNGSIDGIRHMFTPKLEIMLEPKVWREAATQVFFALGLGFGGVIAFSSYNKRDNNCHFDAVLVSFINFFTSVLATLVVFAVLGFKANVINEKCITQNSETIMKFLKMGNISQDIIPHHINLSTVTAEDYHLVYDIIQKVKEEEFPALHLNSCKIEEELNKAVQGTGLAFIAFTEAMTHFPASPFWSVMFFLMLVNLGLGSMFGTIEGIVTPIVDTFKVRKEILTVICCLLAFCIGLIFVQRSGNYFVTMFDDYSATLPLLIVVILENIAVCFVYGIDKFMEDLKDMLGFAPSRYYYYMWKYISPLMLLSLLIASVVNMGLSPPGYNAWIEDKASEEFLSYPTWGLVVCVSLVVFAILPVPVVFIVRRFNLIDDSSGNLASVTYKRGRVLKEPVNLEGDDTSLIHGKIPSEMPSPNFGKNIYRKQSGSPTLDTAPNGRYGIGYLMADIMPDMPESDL


Tests used:
[1] = target: T1, B^0AT2/SLC6A15 (eGFP-hSLC6A15); assay: cell-based; design: species or system HEK293 eGFP-hSLC6A15
[2] = test system: NTT4/SLC6A17 (NTT4-B^0AT2 chimera); assay: 3H-proline uptake inhibition, HEK293, 384-well; type: cell-based; conditions: blanket statement for all 1,5-benzodiazepine analogs
SERT (hSERT) = SERT (hSERT) (Homo sapiens, UniProt P31645); assay: 3H-5HT uptake inhibition, HEK293, 384-well; type: cell-based
Chain of SERT (hSERT) (P31645 whole entry): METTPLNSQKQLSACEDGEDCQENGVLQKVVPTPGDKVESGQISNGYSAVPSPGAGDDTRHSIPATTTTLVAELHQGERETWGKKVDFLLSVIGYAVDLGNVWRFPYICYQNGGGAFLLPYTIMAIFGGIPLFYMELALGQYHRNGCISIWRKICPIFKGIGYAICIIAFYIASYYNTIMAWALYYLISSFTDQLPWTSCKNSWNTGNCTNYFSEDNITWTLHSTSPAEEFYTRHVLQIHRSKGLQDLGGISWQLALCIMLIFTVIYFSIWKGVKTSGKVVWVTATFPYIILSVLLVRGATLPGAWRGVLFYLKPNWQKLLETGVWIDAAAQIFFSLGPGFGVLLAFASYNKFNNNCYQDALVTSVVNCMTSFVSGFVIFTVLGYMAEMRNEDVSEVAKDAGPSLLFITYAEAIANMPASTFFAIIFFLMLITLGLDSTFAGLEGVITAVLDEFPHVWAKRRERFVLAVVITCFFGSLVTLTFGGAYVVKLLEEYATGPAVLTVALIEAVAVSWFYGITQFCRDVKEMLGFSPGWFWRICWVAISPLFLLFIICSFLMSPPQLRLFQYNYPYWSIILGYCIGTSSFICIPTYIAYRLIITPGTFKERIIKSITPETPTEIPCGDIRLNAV

GAT1 (hGAT1) = GAT1 (hGAT1) (Homo sapiens, UniProt P30531); assay: 3H-GABA uptake inhibition, HEK293, 384-well; type: cell-based
Chain of GAT1 (hGAT1) (P30531 whole entry): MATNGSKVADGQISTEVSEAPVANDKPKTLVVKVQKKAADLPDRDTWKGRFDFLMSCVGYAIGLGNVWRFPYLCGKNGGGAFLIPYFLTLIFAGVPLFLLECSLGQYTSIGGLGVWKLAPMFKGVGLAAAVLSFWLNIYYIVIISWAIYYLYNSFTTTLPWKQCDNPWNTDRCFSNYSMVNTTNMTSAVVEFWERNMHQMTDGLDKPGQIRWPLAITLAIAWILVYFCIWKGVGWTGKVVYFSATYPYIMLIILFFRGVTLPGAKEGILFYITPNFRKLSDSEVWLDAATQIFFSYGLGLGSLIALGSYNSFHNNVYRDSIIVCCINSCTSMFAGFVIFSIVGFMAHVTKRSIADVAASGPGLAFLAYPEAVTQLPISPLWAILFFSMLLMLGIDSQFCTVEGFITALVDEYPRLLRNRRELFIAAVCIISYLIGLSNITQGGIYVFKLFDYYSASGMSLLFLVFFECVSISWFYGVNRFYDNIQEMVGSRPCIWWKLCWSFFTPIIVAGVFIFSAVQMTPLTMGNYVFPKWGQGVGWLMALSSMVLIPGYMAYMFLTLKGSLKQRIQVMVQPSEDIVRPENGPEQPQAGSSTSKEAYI

[3] = target: T1, B^0AT2/SLC6A15 (eGFP-hSLC6A15); assay: cell-based; design: species or system HEK293 eGFP-hSLC6A15; remark: listed apart in the source
DAT (hDAT) = DAT (hDAT) (Homo sapiens, UniProt Q01959); assay: 3H-dopamine uptake inhibition, HEK293, 384-well; type: cell-based
Chain of DAT (hDAT) (Q01959 whole entry): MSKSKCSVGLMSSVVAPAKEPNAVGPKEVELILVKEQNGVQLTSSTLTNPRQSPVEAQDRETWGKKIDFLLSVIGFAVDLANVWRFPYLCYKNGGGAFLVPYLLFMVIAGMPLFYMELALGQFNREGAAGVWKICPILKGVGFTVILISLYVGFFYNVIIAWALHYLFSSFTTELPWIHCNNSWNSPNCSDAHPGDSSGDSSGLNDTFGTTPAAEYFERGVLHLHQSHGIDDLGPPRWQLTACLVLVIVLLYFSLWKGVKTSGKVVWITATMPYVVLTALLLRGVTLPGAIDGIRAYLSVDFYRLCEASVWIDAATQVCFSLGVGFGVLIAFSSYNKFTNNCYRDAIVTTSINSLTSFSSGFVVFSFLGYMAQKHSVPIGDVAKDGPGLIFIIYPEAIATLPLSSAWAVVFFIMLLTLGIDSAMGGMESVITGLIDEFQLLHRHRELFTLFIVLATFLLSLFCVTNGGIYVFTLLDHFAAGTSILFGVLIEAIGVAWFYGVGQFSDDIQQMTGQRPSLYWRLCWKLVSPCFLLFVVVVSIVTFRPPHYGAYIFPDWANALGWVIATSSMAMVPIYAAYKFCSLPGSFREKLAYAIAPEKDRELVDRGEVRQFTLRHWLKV

[4] = target: T1, B^0AT2/SLC6A15 (eGFP-hSLC6A15); assay: cell-based; design: species or system HEK293 eGFP-hSLC6A15; remark: listed apart in the source
[5] = target: T1, B^0AT2/SLC6A15 (eGFP-hSLC6A15); assay: inhibition of 3H-proline uptake, HEK293; type: cell-based
[6] = target: T1, B^0AT2/SLC6A15 (eGFP-hSLC6A15); assay: inhibition of 3H-proline uptake by unlabelled proline, HEK293; type: cell-based
[7] = substrate: O=C(O)[C@@H]1CCCN1; assay: cells, lysate or membranes; conditions: labelled compound, pH 7.4, 120 mM Na+

Row | IC50 [1] [µM] | IC50 [2] [µM] | IC50 (SERT (hSERT)) [µM] | IC50 (GAT1 (hGAT1)) [µM] | Molecule | further results
1 | 0.93 ± 0.08 | > 80 | > 80 | > 80 | COc1cc(C2C3=C(CCCC3=O)Nc3ccccc3N2C(=O)c2ccccc2)ccc1O (stereo not shown) [10a] | –
2 | 1.4 ± 0.2 | – | – | – | COc1ccc(C2C3=C(CCCC3=O)Nc3ccccc3N2C(=O)c2ccccc2)cc1OC (stereo not shown) [10b] | –
3 | 0.66 ± 0.07 | – | – | – | COc1ccc(C2C3=C(CCCC3=O)Nc3ccccc3N2C(=O)c2ccccc2)cc1 (stereo not shown) [10c] | –
4 | 2.5 ± 0.4 | – | – | – | O=C1CCCC2=C1C(c1ccc(Cl)c(Cl)c1)N(C(=O)c1ccccc1)c1ccccc1N2 (stereo not shown) [10d] | –
5 | 2.9 ± 0.6 | – | – | – | O=C1CCCC2=C1C(c1ccc(F)cc1)N(C(=O)c1ccccc1)c1ccccc1N2 (stereo not shown) [10e] | –
6 | 1.2 ± 0.2 | – | – | – | O=C1CCCC2=C1C(c1ccccc1)N(C(=O)c1ccccc1)c1ccccc1N2 (stereo not shown) [10f] | –
7 | – | > 80 | > 80 | > 80 | CC1(C)CC(=O)C2=C(C1)Nc1ccccc1N(C(=O)c1ccccc1)C2c1ccc(C(C)(C)C)cc1 (stereo not shown) [11n] | IC50 [3]: > 80 µM
8 | – | > 80 | > 80 | > 80 | COc1cc(C2C3=C(CC(C)(C)CC3=O)Nc3ccccc3N2C(=O)c2ccccc2)ccc1O (stereo not shown) [11v] | IC50 [3]: 0.24 ± 0.02 µM
9 | – | > 80 | > 80 | > 80 | CC1(C)CC(=O)C2=C(C1)Nc1ccccc1N(C(=O)c1ccccc1)C2c1ccc2c(c1)OCO2 (stereo not shown) [11x] | IC50 [3]: 0.8 ± 0.3 µM; IC50 (DAT (hDAT)): > 80 µM
10 | – | > 80 | > 80 | > 80 | COc1ccc(C2C3=C(CC(c4ccco4)CC3=O)Nc3ccccc3N2C(=O)c2ccccc2)cc1 (stereo not shown) [14d] | IC50 [4]: 0.49 ± 0.03 µM; IC50 (DAT (hDAT)): > 80 µM
11 | – | > 80 | > 80 | > 80 | COc1ccc(C2C3=C(CC(c4ccc(OC)c(OC)c4)CC3=O)Nc3ccccc3N2C(=O)c2ccccc2)cc1 (stereo not shown) [14f] | IC50 [4]: > 80 µM
12 | – | – | – | – | CC(C)C[C@H](N)C(=O)O [leucine] | IC50 [5]: 210 ± 30 µM
13 | – | – | – | – | O=C(O)[C@@H]1CCCN1 [proline] | IC50 [6]: 257 ± 53 µM
14 | – | – | – | – | B^0AT2/SLC6A15 (eGFP-hSLC6A15) (Homo sapiens) (protein) MPKNSKVVKRELDDDVTESVKDLLSNEDAADDAFKTSELIVDGQEEKDTDVEEGSEVEDERPAWNSKLQYILAQVGFSVGLGNVWRFPYLCQKNGGGAYLLPYLILLMVIGIPLFFLELSVGQRIRRGSIGVWNYISPKLGGIGFASCVVCYFVALYYNVIIGWSLFYFSQSFQQPLPWDQCPLVKNASHTFVEPECEQSSATTYYWYREALNISSSISESGGLNWKMTICLLAAWVMVCLAMIKGIQSSGKIIYFSSLFPYVVLICFLIRAFLLNGSIDGIRHMFTPKLEIMLEPKVWREAATQVFFALGLGFGGVIAFSSYNKRDNNCHFDAVLVSFINFFTSVLATLVVFAVLGFKANVINEKCITQNSETIMKFLKMGNISQDIIPHHINLSTVTAEDYHLVYDIIQKVKEEEFPALHLNSCKIEEELNKAVQGTGLAFIAFTEAMTHFPASPFWSVMFFLMLVNLGLGSMFGTIEGIVTPIVDTFKVRKEILTVICCLLAFCIGLIFVQRSGNYFVTMFDDYSATLPLLIVVILENIAVCFVYGIDKFMEDLKDMLGFAPSRYYYYMWKYISPLMLLSLLIASVVNMGLSPPGYNAWIEDKASEEFLSYPTWGLVVCVSLVVFAILPVPVVFIVRRFNLIDDSSGNLASVTYKRGRVLKEPVNLEGDDTSLIHGKIPSEMPSPNFGKNIYRKQSGSPTLDTAPNGRYGIGYLMADIMPDMPESDL | Km [7]: 960 ± 51 µM
